Test results reported in patent US11180452B2, “Methods and compositions for selectively inhibiting pathogenic microbes” (priority 2019, dated 2021).
Converted amounts (≈) assume the structure as drawn. Like-named read-outs stand apart in the source and are kept apart here.

How the values were obtained:
Trichophyton rubrum = test: MIC against Trichophyton rubrum; format: cell-based
NoSpin HepaRG cells = test: HepaRG cytotoxicity, MTT assay EC50; format: cell-based, human; conditions: Homo sapiens, HepaRG; cytotoxicity EC50, Table 9
Bacillus subtilis = Bacillus subtilis MIC / MBC; format: cell-based; conditions: for MBC: Bacillus subtilis NRRL: B-571, minimum bactericidal concentration; for MIC: Bacillus subtilis
Bacillus thuringiensis = format: cell-based; conditions: for MIC: Bacillus thuringiensis
[1] = test system: Burkholderia thailandensis Brett et al ATCC: 700388; test: microbe, parasite or virus in culture; format: cell-based
Candida glabrata = Candida glabrata MIC / MFC; format: cell-based; conditions: Nakaseomyces glabratus; for MIC: read-out: MIC; for MFC: read-out: MFC
[2] = test system: Francisella tularensis subsp. Holarctica Strain LVSR NR-597; test: microbe, parasite or virus in culture; format: cell-based
N. gonorrhoeae = N. gonorrhoeae MIC; format: cell-based; conditions: Neisseria gonorrhoeae, strain #167
C. albicans = test: Candida albicans MIC / MFC; format: cell-based
[3] = test system: Francisella tularensis strains; test: microbe, parasite or virus in culture; format: cell-based
[4] = test system: Staphylococcus aureus (SA); test: MIC against pathogen Staphylococcus aureus (Table 1); format: cell-based; conditions: read-out: Pathogens MIC Staphylococcus aureus (SA)
Roseomonas mucosa (RM) = test: MIC against skin commensal Roseomonas mucosa; format: cell-based; conditions: read-out: Skin Commensals MIC Roseomonas mucosa (RM)
[5] = test system: Staphylococcus epidermidis (SE); test: MIC against skin commensal Staphylococcus epidermidis; format: cell-based; conditions: read-out: Skin Commensals MIC Staphylococcus epidermidis (SE)
[6] = HepaRG cytotoxicity, MTT assay EC50; format: cell-based, human; conditions: human, NoSpin HepaRG cells
HepG2 cells = test: SYTOX assay on HepG2 cells; format: cell-based; conditions: staining in treated cells
[7] = MIC with and without 2-ketobutyrate (synergy); format: cell-based
[8] = test system: cell wall synthesis of S. aureus; test: Macromolecular synthesis assay, glucosamine incorporation into cell wall; format: cell-based; conditions: dose-response, FIG. 2A-2B
[9] = Trichophyton rubrum Castellani Sabouraud ATCC: 28188, read-out: MIC
[10] = Bacillus subtilis (Ehrenberg 1835) Cohn 1872 NRRL: B-571, read-out: MIC
[11] = strain B-571 (Table 4), read-out: Bacillus subtilis MIC
[12] = strain B-1985, read-out: Bacillus subtilis MIC
[13] = strain B-3665, read-out: Bacillus subtilis MIC
[14] = strain B-14322, read-out: Bacillus subtilis MIC
[15] = strain B-41090, read-out: Bacillus subtilis MIC
[16] = strain BD-594, read-out: Bacillus subtilis MIC
[17] = Bacillus thuringiensis Berliner ATCC: 10792
[18] = Bacillus thuringiensis Berliner ATCC: 10792, read-out: MIC
[19] = C. glabrata strain #584 (Table 7)
[20] = C. albicans strain #761, read-out: MFC
[21] = C. albicans strain #761, read-out: MIC
[22] = C. albicans strain #762, read-out: MFC
[23] = C. albicans strain #762, read-out: MIC
[24] = read-out: F. tularensis BSL-3 MIC, Strain 100
[25] = read-out: F. tularensis BSL-3 MIC, strain HN-63
[26] = read-out: F. tularensis BSL-3 MIC, strain LVS
[27] = read-out: F. tularensis BSL-3 MIC, strain MA00-2987
[28] = read-out: F. tularensis BSL-3 MIC, strain MO #1
[29] = read-out: F. tularensis BSL-3 MIC, strain MO #2
[30] = read-out: F. tularensis BSL-3 MIC, strain MO #3
[31] = read-out: F. tularensis BSL-3 MIC, strain OR-96
[32] = read-out: F. tularensis BSL-3 MIC, strain SCHU S4
[33] = read-out: F. tularensis BSL-3 MIC, strain WY-96
[34] = read-out: MAX, highest MIC over the Francisella tularensis strains
[35] = read-out: MIN, lowest MIC over the Francisella tularensis strains

In the case of `Brc1cccc(Sc2c[nH]c3ccc(Br)cc23)c1` [Compound 174N, 5-bromo-3-((3-bromophenyl)thio)-1H-indole], the MIC (Trichophyton rubrum; [9]) is reported as under 0.57 µg/mL, the EC50 (NoSpin HepaRG cells) is reported as 29.5 µg/mL (≈ 77 µM) and the MBC (Bacillus subtilis) is reported as 10 µg/mL (≈ 26.1 µM). For the same molecule, the MIC (Bacillus subtilis; [10]) was 1.25 µg/mL (≈ 3.26 µM), the MIC (Bacillus subtilis; [11]) was 1.25 µg/mL (≈ 3.26 µM) and the MIC (Bacillus subtilis; [12]) was 1.25 µg/mL (≈ 3.26 µM). The MIC (Bacillus subtilis; [13]) was 1.25 µg/mL (≈ 3.26 µM), the MIC (Bacillus subtilis; [14]) was 1.25 µg/mL (≈ 3.26 µM) and the MIC (Bacillus subtilis; [15]) was 2.5 µg/mL (≈ 6.53 µM). The MIC (Bacillus subtilis; [16]) was 2.5 µg/mL (≈ 6.53 µM), the MBC (Bacillus thuringiensis; [17]) was 10 µg/mL (≈ 26.1 µM) and the MIC (Bacillus thuringiensis; ATCC10792, […]) was 1.25 µg/mL (≈ 3.26 µM). For the same molecule, the MIC (Bacillus thuringiensis; [18]) was 1.25 µg/mL (≈ 3.26 µM), the MIC (Bacillus thuringiensis; strain B-1596) was 2.5 µg/mL (≈ 6.53 µM) and the MBC [1] was over 150 µg/mL. It also gave an MIC [1] of 50 µg/mL (≈ 131 µM), an MIC (Candida glabrata; C. glabrata strain #325) of over 50 µg/mL and an MFC (Candida glabrata; [19]) of 50 µg/mL (≈ 131 µM). For the same molecule, the MFC (Candida glabrata; Candida glabrata #584 (Table 2), minimum fungicidal concentration) was 50 µg/mL (≈ 131 µM), the MIC [2] was 1.25 µg/mL (≈ 3.26 µM) and the MIC (N. gonorrhoeae) was 1.56 µg/mL (≈ 4.07 µM). The MFC (C. albicans; [20]) was over 50 µg/mL, the MIC (C. albicans; [21]) was 12.5 µg/mL (≈ 32.6 µM) and the MFC (C. albicans; [22]) was 6.25 µg/mL (≈ 16.3 µM). For the same molecule, the MIC (C. albicans; [23]) was 3.13 µg/mL (≈ 8.17 µM), the MIC50 [3] was 4 µg/mL (≈ 10.4 µM) and the MIC [3, 24] was 8 µg/mL (≈ 20.9 µM). The MIC [3, 25] was 4 µg/mL (≈ 10.4 µM), the MIC [3, 26] was 6.67 µg/mL (≈ 17.4 µM) and the MIC [3, 27] was 6.67 µg/mL (≈ 17.4 µM). It also gave an MIC [3, 28] of 3.33 µg/mL (≈ 8.69 µM), an MIC [3, 29] of 3.67 µg/mL (≈ 9.58 µM) and an MIC [3, 30] of 4 µg/mL (≈ 10.4 µM). It also gave an MIC [3, 31] of 4 µg/mL (≈ 10.4 µM), an MIC [3, 32] of over 8 µg/mL and an MIC [3, 33] of 4 µg/mL (≈ 10.4 µM). It also gave an MIC [3, 34] of over 8 µg/mL and an MIC [3, 35] of 3.33 µg/mL (≈ 8.69 µM).
For `Nc1ccccc1Sc1c[nH]c2ccc(Br)cc12` [Compound 174M, 2-((5-bromo-1H-indol-3-yl)thio)aniline], the MIC [4] was 2 µg/mL (≈ 6.27 µM), the MIC (Trichophyton rubrum; [9]) was 0.99 µg/mL (≈ 3.1 µM) and the MIC (Trichophyton rubrum; Trichophyton rubrum, read-out: Pathogens MIC Trichophyton rubrum (TR)) was 0.9 µg/mL (≈ 2.82 µM). It also gave an MIC (Roseomonas mucosa (RM)) of over 50 µg/mL, an MIC [5] of 16 µg/mL (≈ 50.1 µM) and an EC50 at 48 h [6] of 85 µg/mL (≈ 266 µM). For the same molecule, the EC50 (NoSpin HepaRG cells) was 26.5 µg/mL (≈ 83 µM), the MBC (Bacillus subtilis) was 10 µg/mL (≈ 31.3 µM) and the MIC (Bacillus subtilis; [10]) was 0.63 µg/mL (≈ 1.97 µM). It also gave an MIC (Bacillus subtilis; [11]) of 0.625 µg/mL (≈ 1.96 µM), an MIC (Bacillus subtilis; [12]) of 5 µg/mL (≈ 15.7 µM) and an MIC (Bacillus subtilis; [13]) of 10 µg/mL (≈ 31.3 µM). For the same molecule, the MIC (Bacillus subtilis; [14]) was 2.5 µg/mL (≈ 7.83 µM), the MIC (Bacillus subtilis; [15]) was 5 µg/mL (≈ 15.7 µM) and the MIC (Bacillus subtilis; strain B-41581, read-out: Bacillus subtilis MIC) was 5 µg/mL (≈ 15.7 µM). It also gave an MIC (Bacillus subtilis; [16]) of 5 µg/mL (≈ 15.7 µM), an MBC (Bacillus thuringiensis; [17]) of 5 µg/mL (≈ 15.7 µM) and an MIC (Bacillus thuringiensis; ATCC10792, […]) of 0.625 µg/mL (≈ 1.96 µM). The MIC (Bacillus thuringiensis; [18]) was 1.25 µg/mL (≈ 3.92 µM), the MIC (Bacillus thuringiensis; strain B-1596) was 1.25 µg/mL (≈ 3.92 µM) and the MBC [1] was over 150 µg/mL. The MIC [1] was 150 µg/mL (≈ 470 µM), the MFC (Candida glabrata; C. glabrata strain #325) was over 50 µg/mL and the MIC (Candida glabrata; C. glabrata strain #325) was 25 µg/mL (≈ 78.3 µM). It also gave an MIC (Candida glabrata; [19]) of 12.5 µg/mL (≈ 39.2 µM), an MIC (Candida glabrata; Candida glabrata #584 (Table 2)) of 12.5 µg/mL (≈ 39.2 µM) and an MIC [2] of 2.5 µg/mL (≈ 7.83 µM). It also gave an MIC (N. gonorrhoeae) of 1.56 µg/mL (≈ 4.89 µM), an MFC (C. albicans; [20]) of 25 µg/mL (≈ 78.3 µM) and an MIC (C. albicans; [21]) of 12.5 µg/mL (≈ 39.2 µM). For the same molecule, the MFC (C. albicans; [22]) was 25 µg/mL (≈ 78.3 µM), the MIC (C. albicans; [23]) was 3.13 µg/mL (≈ 9.8 µM) and the MIC50 [3] was 4 µg/mL (≈ 12.5 µM). The MIC [3, 24] was over 8 µg/mL, the MIC [3, 25] was 4 µg/mL (≈ 12.5 µM) and the MIC [3, 26] was 2 µg/mL (≈ 6.27 µM). For the same molecule, the MIC [3, 27] was 2 µg/mL (≈ 6.27 µM), the MIC [3, 28] was 2 µg/mL (≈ 6.27 µM) and the MIC [3, 29] was 1.67 µg/mL (≈ 5.23 µM). For the same molecule, the MIC [3, 30] was 4 µg/mL (≈ 12.5 µM), the MIC [3, 31] was 4 µg/mL (≈ 12.5 µM) and the MIC [3, 32] was 8 µg/mL (≈ 25.1 µM). For the same molecule, the MIC [3, 33] was 4 µg/mL (≈ 12.5 µM), the MIC [3, 34] was over 8 µg/mL and the MIC [3, 35] was 1.67 µg/mL (≈ 5.23 µM). For the same molecule, the “cell membrane damage of HepG2 cells” value (HepG2 cells) was “no cell membrane damage”, the “synergistic effect with 2-ketobutyrate” value [7] was “synergistic effect” and the MIC ([7]; with 200 μg/mL 2-ketobutyrate) was 0.781 µg/mL. The MIC ([7]; with 800 μg/mL 2-ketobutyrate) was “less than 0.39 μg/mL” and the MIC ([7]; without ketobutyrate) was 3.124 µg/mL.
With `CN[C@H](CC(C)C)C(=O)N[C@H]1C(=O)N[C@@H](CC(N)=O)C(=O)N[C@H]2C(=O)N[C@H]3C(=O)N[C@H](C(=O)N[C@H](C(=O)O)c4cc(O)cc(O)c4-c4cc3ccc4O)[C@H](O)c3ccc(c(Cl)c3)Oc3cc2cc(c3O[C@@H]2O[C@H](CO)[C@@H](O)[C@H](O)[C@H]2O[C@H]2C[C@](C)(N)[C@H](O)[C@H](C)O2)Oc2ccc(cc2Cl)[C@H]1O` [vancomycin, reference compound] the “cell wall synthesis inhibition (glucosamine incorporation)” value [8] was “increasingly inhibits glucosamine from incorporating into a cell wall”.
